Results taken from article PMC5686756, “IKKγ-Mimetic Peptides Block the Resistance to Apoptosis Associated with Kaposi's Sarcoma-Associated Herpesvirus Infection” (Journal of Virology, 2017).
Positions of bridges follow the written chain, without caps; N, C: chain ends. Non-standard residues stand in square brackets, D forms with d. Residues, ends and D or L forms follow the SMILES beside them. S5 = C=CCCC[C@](C)(N)C(=O)O

Key:
Jurkat cells = experiment: Cell viability assay (trypan blue), Jurkat cells; assay type: cell-based, human; details: for rescue of Jurkat cell survival by WT ks-vFLIP: FADD/ATG3 siRNA Jurkat cells overexpressing WT ks-vFLIP; for protection by ks-vFLIP, IKKγ-null cells: Jurkat cells null for IKKγ; for protection by A57L ks-vFLIP mutant against induced apoptosis: Jurkat cells with A57L ks-vFLIP; for Jurkat cell survival, FADD or ATG3 silenced or IKKγ null: no ks-vFLIP rescue, FADD siRNA, ATG3 siRNA
From the text: Although it has been established that dysregulated activation of the canonical NF-κB pathway by ks-vFLIP renders mouse embryonic fibroblasts resistant to apoptosis induced by TNF-α ([12]), we sought to ascertain whether ks-vFLIP expression also prevents cell death induced by ETO. Unlike TNF-α, which instigates death receptor signaling, ETO, a topoisomerase II inhibitor, initiates cell death through the generation of DNA double-strand breaks ([20]). […] We next investigated the potential involvement of death-inducing signaling complex (DISC) formation and autophagy since ks-vFLIP has been cited (somewhat controversially) to interact with procaspase 8, an […] whose activation requires the adaptor protein FADD ([21]), and to physically associate with the ubiquitin-like conjugating enzyme ATG3, which is essential for the formation of autophagosomes ([11]). Viability assays were therefore conducted using Jurkat cells in which FADD and ATG3 were silenced (using small interfering RNA [siRNA]) together with those null for IKKγ in the presence of both ETO and TNF-α (Fig. 1C and D).
Lentiviral vectors expressing GST or GST fusion peptides together with green fluorescent protein (GFP), CherryFP, WT vFLIP, or vFLIPA57L (a mutant which fails to bind IKKγ) were produced as previously described ([19]). […] In each case, lentiviral vector doses were used to ensure that over 95% of cells were positive for the relevant fluorescent protein. The anti-FADD antibody used for immunoblots was purchased from BD Biosciences, and those for anti-ATG3 and anti-glyceraldehyde-3-phosphate dehydrogenase (anti-GAPDH) were from Cell Signaling Technology. Jurkat cells and their IKKγ-null derivatives were obtained from Alain Israel, Institute Pasteur, and verified as human T cells by surface CD3 staining.
(§1) The transfected cells, the human B cell lines BC3, BCP-1, and DG75 (a […] negative for KSHV and Epstein-Barr virus [EBV]) were treated with human TNF-α (PeproTech or Alomone Labs), ETO (Sigma), spIKKγ (encompassing IKKγ residues 230 to 248; see Fig. 3 for structure), or combinations of spIKKγ with either TNF-α or ETO. Cell survival was determined after 24 and 48 h by trypan blue staining and counting with a hemocytometer. Cell viability is expressed as a percentage of the number of viable cells per culture at the start of each experiment. […] Significance difference was calculated by two-way analysis of variance (ANOVA) with Fisher's least significant difference (LSD) posttest.

BC3 cells = assay type: cell-based, human; details: for BC3 cell death, agent individually: TNF-α or ETO alone
Procedure: (§2) Given their profound impact on NF-κB activation, we next assessed whether IKKγ-mimetic peptides could sensitize BC3 cells to TNF-α and ETO and thus stimulate cell death. To investigate this in cellulo, BC3 cells were transduced with the GST-IKKγ peptide vector prior to treatment with TNF-α or ETO, and after 24 h, their viabilities were assessed. As a control, similar trials were conducted but with GST-IKKγDM, which harbors the same peptide containing the F238R D242R IKKγ double mutations previously shown to impair ks-vFLIP binding and consequently NF-κB activation ([27]). […] We also determined whether spIKKγ could have a similar effect. Owing to the presence of the aliphatic linker and overall positive charge (+0.1), we reasoned that spIKKγ was likely to be cell permeable based on studies involving a diverse range of unrelated stapled peptides ([28][–][32]). […] The effects of SPIKKγ were also investigated on BCP-1 cells, an additional PEL cell line.
Lentiviral vectors expressing GST or GST fusion peptides together with green fluorescent protein (GFP), CherryFP, WT vFLIP, or vFLIPA57L (a mutant which fails to bind IKKγ) were produced as previously described ([19]). […] In each case, lentiviral vector doses were used to ensure that over 95% of cells were positive for the relevant fluorescent protein. […]
as §1

DG75 cells = experiment: Cell viability assay (trypan blue), DG75 cells; assay type: cell-based, human
Procedure: as §2
BC3, BCP-1, and DG75 cells were purchased for this study from the American Type Culture Collection (ATCC). They were verified as human B cell lines by surface staining for human Ig.
as §1

GB1–ks-vFLIP = biological target: T1, GB1–ks-vFLIP (Human herpesvirus 8 type P, UniProt F5HEZ4); experiment: biochemical; assay type: binding, Kaposi's sarcoma-associated herpesvirus
T1 construct: ks-vFLIP (residues 1 to 188) was PCR cloned into the EcoRI and XhoI sites of GB1-pBR22b; 6His (C); made in house; host or cells: E. coli BL21(DE3)
Procedure: We next sought to assess the affinity of spIKKγ for vFLIP using isothermal calorimetry (ITC).
Isothermal calorimetry (ITC) experiments were performed using a Microcal VP-ITC micocalorimeter (MicroCal). For all binding reactions, syringe concentrations varied between ∼85 and 100 μM for IKKγ(150–272) and cell concentrations between ∼8 and 10 μM for GB1-vFLIP. Titrations consisted of an initial 2-μl injection, followed by 20 10-μl injections with stirring at 300 rpm. In competition assays, GB1–ks-vFLIP was first incubated with 20 μM spIKKγ and DMSO to 4% prior to loading into the cell and titration with IKKγ(150–272). All ITC binding experiments were performed in deionized water at 25°C owing to the buffer constraints of spIKKγ, GB1–ks-vFLIP, and IKKγ(150–272), where GB1–ks-vFLIP and IKKγ(150–272) were buffer matched by overnight dialysis, followed by the addition of 4% DMSO to each. […] Following collection, all data were analyzed using ORIGIN 70 software and fitted to a one-site binding model with each experiment performed at least in triplicate.

Row | Molecule | rescue by WT ks-vFLIP, ATG3 siRNA (Jurkat cells; ATG3 siRNA Jurkat cells, ETO) | Jurkat cell survival, null for ks-vFLIP (Jurkat cells; ETO 50 μM, cells null for ks-vFLIP) | Jurkat cell survival with ks-vFLIP (Jurkat cells; ETO 50 μM, ks-vFLIP-expressing cells) | rescue of Jurkat cell survival by WT ks-vFLIP (Jurkat cells) | protection by ks-vFLIP, IKKγ-null cells (Jurkat cells) | protection by A57L ks-vFLIP mutant against induced apoptosis (Jurkat cells) | Jurkat cell survival, FADD or ATG3 silenced or IKKγ null (Jurkat cells) | BC3 cell death, agent individually (BC3 cells) | DG75 viability at 48 h, ETO (or ETO plus spIKKγ) (DG75 cells; Fig. 5E, 48 h) | DG75 sensitivity to ETO (DG75 cells; after 48 h) | Ki (GB1–ks-vFLIP) [µM] | IC50 (BC3 cells; spIKKγ alone, after 24 h, trypan blue, triplicate independent experiments, read-out: 50% inhibitory concentration (IC50), BC3 viability) [µM] | solubility in aqueous solutions | Jurkat cell survival, trend versus ETO (Jurkat cells; TNF-α, various concentrations, with and without ks-vFLIP) | DG75 viability, control experiment (DG75 cells; Fig. 5E, spIKKγ or TNF-α alone or in combination, 24 and 48 h)
1 | COc1cc([C@@H]2c3cc4c(cc3[C@@H](O[C@@H]3O[C@@H]5CO[C@@H](C)O[C@H]5[C@H](O)[C@H]3O)[C@H]3COC(=O)[C@H]23)OCO4)cc(OC)c1O [ETO, etoposide] | to a lesser degree | severely compromised | only moderately reduced | could to a large extent be rescued | completely refractory to the protective effects of ks-vFLIP | could not protect cells against apoptosis | severely compromised in all three scenarios | negligible effects individually | significant reduction in viability | Considerable sensitivity |  |  |  |  | 
2 | CC[C@H](C)[C@H](NC(=O)[C@H](Cc1c[nH]cn1)NC(=O)[C@H](CC(N)=O)NC(=O)[C@H](CC(=O)O)NC(=O)[C@H](Cc1ccc(O)cc1)NC(=O)[C@]1(C)CCCC=CCCC[C@](C)(NC(=O)[C@H](Cc2c[nH]cn2)NC(=O)[C@H](Cc2ccc(O)cc2)NC(=O)[C@H](C)NC(=O)[C@@H](NC(=O)[C@H](CCC(N)=O)NC(=O)[C@H](CC(C)C)NC(C)=O)C(C)C)C(=O)N[C@@H](CC(C)C)C(=O)N[C@@H](Cc2ccccc2)C(=O)N[C@@H](CCC(N)=O)C(=O)N1)C(=O)N[C@@H](CCCCN)C(=O)N[C@@H](CO)C(=O)N[C@@H](CO)C(=O)N[C@@H](CS)C(N)=O [spIKKγ] (Ac-LQVAYH[S5]LFQ[S5]YDNHIKSSC-NH2; staple 7-11) |  |  |  |  |  |  |  |  |  |  | 0.257 | ~75 | poor solubility |  | 
3 | TNF-α |  |  |  | could to a large extent be rescued | completely refractory to the protective effects of ks-vFLIP | could not protect cells against apoptosis | severely compromised in all three scenarios | negligible effects individually |  |  |  |  |  | closely mirror the trend | failed to have a negative impact
